# Laboratory results: US11725204B2, “Multiplex genome engineering in eukaryotes” (priority 2016, dated 2023)
# What was measured:
# Format in all cases: cell-based, S. cerevisiae
# ADE2 [1] = test: eMAGE allelic replacement frequency at Ori-URA3-ADE2 locus (5-FOA selection, red/white screening)
# Procedure: A list of ssODNs used for FIGS. 1-4 in this study can be found in Table 2. For eMAGE experiments, a single colony was inoculated in 2 mL CSM-Ura medium and grown overnight to saturation. The next day the culture was diluted 1:50 in 10 mL of CSM-Ura and grown for 6 hours prior to electroporation. The ssODN concentration and size were determined from optimization experiments performed in Figure S2D,F. A total of 20 uM of 90nt ssODNs consisting of 50% selection ssODN 50% target ssODN(s) was used for eMAGE transformations. The optimal HU concentration was determined from figure S2A. The eMAGE pretreatment mixture contained 500 mM HU in TE pH 8/500 mM Lithium Acetate/25 mM DTT. Electroporation for eMAGE was performed exactly as described above. After 12 hours of recovery, ˜10^5 cells were plated on 5-FOA selection plates for msh2Δ and MMR mutant strains and ˜10^7 cells were plated for strains with WT MMR. The resultant 5-FOA plates contained ˜100 colonies which were subject to screening for target ssODN incorporation. The indicated ARF values represent mean+/−SD. All data sets were collected in triplicate. For the Rad51 chemical inhibitor experiment (Figure S1J) the recovery medium was supplemented with inhibitor RI-1 (Abcam ab144558)+1.5% DMSO for solubility.
# Experiments were designed to determine if Rad51-dependent ssODN recombination and incorporation of ssODNs at the DNA replication fork are two distinct pathways in eukaryotes (FIG. 1A). Unlike the E. coli chromosome, the linear chromosomes of S. cerevisiae contain multiple firing origins of replication that confound the precise designation of the lagging strand at each locus (Raghuraman, et al., Science, 294:115-121 (2001); Wyrick, et al., Science, 294:2357-2360 (2001)). Sherman and colleagues observed high frequencies of co-transformation for two ssODNs targeted within a cyc1 mutant gene when one of the ssODNs included a selectable mutation (Yamamoto, et al., Yeast, 8:935-948 (1992a)). […] Experiments were designed to determine whether Sherman's observation could be expanded for ssODNs targeting multiple proximal genes by constructing an experimental locus on chromosome XV with a defined DNA replication direction by placing the URA3 gene proximal to the origin ARS1516 (Ori) directly adjacent to ADE2, which confers a colorimetric phenotype (WT=white; Mutant=red) (FIG. 1C). Cells were transformed with ssODNs targeting the predicted lagging strand of both URA3 and ADE2, and it was observed that ssODN-derived modifications at ADE2 were increased by >10^4-fold (ARF=22%) in URA3-edited (5-FOA resistant) clones (FIG. 1C). […]
# [2] = tested on: target sites at increasing distances from the URA3 marker; test: Target distance efficiency determination (red/white screening or colony PCR with EcoRI digestion); conditions: +HU
# Procedure: Target mutation distance is reported as the distance between the URA3 marker mutation incorporated by the selection-ssODN and the mutation incorporated by the target-ssODN. For target distances of 1 and 2 kb, ssODNs ADE290RC and ADE2_Mult10 were used within the ADE2 gene and the ARFs for these sites were determined by red/white phenotype screening. For targets at 5, 10, 15, and 20 kb distances from the Ori-URA3, target sites were chosen that differ by only a single base-pair from an EcoRI restriction site. The target ssODN was designed to incorporate a base-pair change to create the EcoRI restriction site. For each target assayed, 96 clones were analyzed by colony PCR (Primers for the amplicons analyzed are listed in Table 3) coupled to EcoRI (NEB) digestion of the amplicon for 1 hr at 37° C. The percentage of amplicons cut vs. uncut is represented as the ARF for each distance site. Each distance experiment was performed in triplicate+/−HU treatment. ARF values represent mean+/−SD.
# ADE2 [3] = test: Multiplex incorporation of ssODNs and cycling (colony PCR and Sanger sequencing); conditions: 10-target multiplexing, with HU
# Procedure: For multiplex eMAGE experiments targeting ADE2, red clones that grew on 5-FOA plates were assayed via yeast colony PCR and Sanger sequencing (Genewiz). Insertions were chosen for easy sequence detection since degenerate mismatches would contain WT sequence positions. For cycling experiments, cells were recovered in recovery media after electroporation as described above. After recovery, the population was subjected to liquid selection in 5-FOA for odd cycles and CSM-Ura for even numbered cycles to enrich for edited clones. Selections were performed for 500 uL of recovery culture seeded into 50 mL of selection medium and grown to saturation at 30° C. (˜2 days).
# After the first 1:100 selection the population was diluted 1:50 in selection media and grown for 6 hours for the next electroporation step. The process was repeated for 3 cycles. A total of 100 red clones were sequenced after each cycle. For cycles 1 and 2, 200 unique genotypes were observed out of […], but for cycle 3, 76 unique genotypes were observed out of the 100 clones sequenced. Given that the degeneracy of the ssODN pool largely out-scales the number of clones assayed redundant genotypes would not be expected to arise for independent clones in any cycle assayed. The 24 redundant clones observed in cycle 3 were comprised of 5 genotypes. […]
# URA3 = test: Spontaneous URA3 mutations with transient HU treatment
# Procedure: Experiments were designed to determine if transient treatment with HU would increase the efficiency for ssODN annealing at the replication fork. A 30 minute treatment with 500 mM HU increased the ARF by ˜two-fold compared to the untreated condition. Seven different ssODNs containing a single base-pair mismatch (ssODNs 1,2,5-7), insertion (ssODN #4), or deletion (ssODN #3) in ADE2 were tested and an average ARF increase of 56% (FIG. 2A) was observed. […] The effect of ssODN size and concentration was also tested. Robust cell survival post electroporation (85%) was tested for ssODN concentrations up to 20 uM, which decreased to 45% at 80 uM ssODN. The efficiency of URA3 single-plex targeting increased with increasing ssODN size and concentration with the highest ARF observed (0.08%) for 100nt ssODN at 60 uM. For coupled ADE2-URA3 targeting an optimum ade2 mutant per 5-FOA CFU was determined using a 90nt ssODN at 20 uM. For all subsequent experiments 90nt ssODNs at 20 uM were used.
SMILES,ARF change with Rad51 inhibitor (ADE2 [1]; recovery medium supplemented with RI-1 + 1.5% DMSO),"ARF vs target distance curve fit, Y0 ([2]; one-phase decay Y=(Y0−Z)*exp(−K*X)+Z)","ARF vs target distance curve fit, K ([2]; one-phase decay fit)","ARF vs target distance curve fit, Z ([2]; one-phase decay fit)",increase of ARF compared to the untreated condition (ADE2 [1]; 30 minute treatment with 500 mM HU),HU effect on ARF with HIS3 selection marker (ADE2 [1]; HIS3 selection marker in replace of URA3),"average ARF increase (ADE2 [1]; HU treatment, seven ssODNs with single base-pair mismatch, insertion or deletion in ADE2)",multiplex enhancement of ssODN incorporation (ADE2 [3]; WT),mean number of ssODNs incorporated (ADE2 [3]; msh2Δ),spontaneous URA3 mutations (URA3)
O=C1C(Cl)=C(N2CCOCC2)C(=O)N1c1ccc(Cl)c(Cl)c1 [RI-1],ARF enhancement was observed,,,,,,,,,
"NC(=O)NO [HU, Hydroxyurea]",,49.6,0.279,2.25,two-fold,HU effect was also observed,56%,no multiplex enhancement,3.4 per clone,no significant increase
